According to patent US5859029A, “Heterocyclic compounds method of preparing them and pharmeutical compositions in which they are present” (Sanofi, priority 1995, dated 1999):
Structures can show the parent of a compound that is named as a salt.

target: T1, NK1 receptors of IM9 human lymphoblasts (Homo sapiens, UniProt P25103); test: Binding of [^125 I]BH-SP (substance P) to the NK1 receptors of human lymphoblasts; details: read-out: inhibition constant Ki (binding of substance P to the human lymphoblast NK1 receptor)
T1 construct: NK1 receptors of IM9 human lymphoblasts; endogenous in cells; host or cells: IM9 human lymphoblasts
T1 sequence (P25103 whole entry): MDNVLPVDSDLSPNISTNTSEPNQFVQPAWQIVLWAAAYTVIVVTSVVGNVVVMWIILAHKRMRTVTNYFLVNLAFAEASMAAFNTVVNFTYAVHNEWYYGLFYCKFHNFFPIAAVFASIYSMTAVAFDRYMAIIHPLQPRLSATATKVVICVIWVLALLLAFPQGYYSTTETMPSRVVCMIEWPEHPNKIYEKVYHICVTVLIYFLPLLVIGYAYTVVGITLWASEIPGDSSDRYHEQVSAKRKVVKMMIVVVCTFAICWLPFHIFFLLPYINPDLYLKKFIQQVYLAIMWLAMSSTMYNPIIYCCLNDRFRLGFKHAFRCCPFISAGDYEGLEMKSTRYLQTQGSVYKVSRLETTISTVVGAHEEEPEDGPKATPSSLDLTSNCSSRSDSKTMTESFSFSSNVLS
Procedure: In ligand binding studies, the inhibition constant Ki is defined by the Cheng-Prusoff relationship (in Receptor Binding in Drug Research, eds. R. A. O'Brien, Marcel Dekker, New York, 1986): [formula] [L]: concentration of the ligand, Kd: dissociation constant of the ligand,
IC50 : concentration which inhibits the ligand binding by 50%.
The affinity of the compounds of formula (I) for the tachykinin receptors was evaluated in vitro by several biochemical tests using radioligands:
1°) The binding of [^125 I]BH-SP (substance P labeled with iodine-125 using Bolton-Hunter's reagent) to the NK1 receptors of human lymphoblasts.
The tests were performed according to X. Emonds-Alt et al. (Eur. J. Pharmacol., 1993, 2, 403-413).

Row | Structure (SMILES) | Ki
1 | O=C1CC(CCN2CCC(O)(c3ccccc3)CC2)(c2ccc(Cl)c(Cl)c2)CCN1Cc1ccccc1 (stereo not shown) [1-benzyl-4-(3,4-dichlorophenyl)-4-[2-(4-hydroxy-4-phenylpiperid-1-yl)ethyl]piperid-2-one hydrochloride] | ~1000 nM
2 | O=C1CCC(CCN2CCC(Cc3ccccc3)CC2)(c2ccc(Cl)c(Cl)c2)CN1Cc1ccccc1 (stereo not shown) [5-[2-(4-benzyl-1-piperid-1-yl)ethyl]-5-(3,4-dichlorophenyl)-1-benzylpiperid-2-one hydrochloride] | ~1000 nM
3 | O=C1CC(CCN2CCC(O)(c3ccccc3)CC2)(c2ccc(Cl)c(Cl)c2)CN1Cc1cc(C(F)(F)F)cc(C(F)(F)F)c1 (stereo not shown) [Example 10, 4-(3,4-Dichlorophenyl)-4-[2-(4-hydroxy-4-phenylpiperid-1-yl)ethyl]-1-[3,5-bis(trifluoromethyl)benzyl]pyrrolidin-2-one hydrochloride] | ~0.1 nM
4 | C[N+]1(CCC2(c3ccc(Cl)c(Cl)c3)CCC(=O)N(Cc3cc(C(F)(F)F)cc(C(F)(F)F)c3)C2)CCC(c2ccccc2)CC1 (stereo not shown) [Example 7, 1-Methyl-1-[2-[1-[3,5-bis(trifluoromethyl)benzyl]-5-(3,4-dichlorophenyl)-2-oxopiperid-5-yl]-ethyl]-4-phenylpiperidinium iodide] | ~0.1 nM
